Results reported in patent US12729377B2, “RNAi agents and compositions for inhibiting expression of angiopoietin-like 3 (ANGPTL3), and methods of use” (Arrowhead Pharmaceuticals, Inc., priority 2017, dated 2026).
In the oligonucleotide strings, read from the 5' end, every base follows the letter of its sugar. An asterisk marks phosphorothioate; unmarked linkages are phosphodiester. Other units and linkages are bracketed, terminal groups are in braces. A string of capitals states the bases alone. {NAG37} = tridentate N-acetyl-galactosamine targeting ligand, structure (NAG37)s; [invAb] = inverted abasic unit; m = 2'-O-methyl; f = 2'-fluoro

Tests used:
ANGPTL3 gene [1] = assay: Example 3: serum total cholesterol in mice; assay type: in vivo
Experimental: (§1) To assess the in vivo activity of ANGPTL3 RNAi agents that are designed to target positions 921 and 922 on the ANGPTL3 gene, six- to eight-week-old female C57bl/6 mice were used. Pre-dose serum samples were taken at day −1 after a four hour fast. At day 1, each mouse was given a single subcutaneous administration of 200 μl containing either 1 mg/kg (mpk) of an ANGPTL3 RNAi agent in D5W (dextrose in 5% water), or control (D5W) with no RNAi agent, according to the dosing groups recited in Table 12.
(§2) Each of the RNAi agents included a modified sequence and an N-acetyl-galactosamine-containing targeting ligand conjugated to the 5′ terminal end of the sense strand. (See Tables 3, 4, and 5 for modified sequences and targeting ligand structures). The injections were performed between the skin and muscle (i.e. subcutaneous injections) into the loose skin over the neck and shoulder area. Three (3) mice in each group were tested (n=3). […] Mice were fasted for four hours prior to each collection. ANGPTL3 protein levels in serum were measured by ELISA assay (R&D Systems), according to the manufacturer's recommendations. Triglycerides, high-density lipoprotein (HDL), and total cholesterol in serum were measured on a Cobas® Integra 400 (Roche Diagnostics), according to the manufacturer's recommendations.
(§3) The ANGPTL3 protein levels, triglyceride levels, HDL levels, and total cholesterol levels for each animal were normalized. For normalization, the level of ANGPTL3 protein, triglyceride, HDL, and total cholesterol, respectively, for each animal at a time point, was divided by the pre-treatment level of expression in that animal (in this case at day −1) to determine the ratio of expression “normalized to pre-treatment.” Expression at a specific time point was then normalized to the D5W control group by dividing the “normalized to pre-treatment” ratio for an individual animal by the mean “normalized to pretreatment” ratio of all mice in the D5W control group.

ANGPTL3 protein = assay: Example 3: serum ANGPTL3 protein by ELISA in mice; assay type: in vivo, C57bl/6 mice; settings: 1.0 mg/kg single subcutaneous dose on day 1, serum, female C57bl/6 mice
Experimental: as §1, §2, §3

ANGPTL3 gene [2] = assay: Example 2: serum HDL in mice; assay type: in vivo
Experimental: as §1, with “target different” for “target”, “positions” for “positions 921 and 922”, “either 3” for “either 1”, “Table 7.” for “Table 12.”
(§4) Each of the RNAi agents included a modified sequence and an N-acetyl-galactosamine-containing targeting ligand conjugated to the 5′ terminal end of the sense strand. (See Tables 3, 4, and 5 for modified sequences and targeting ligand structures). The injections were performed between the skin and muscle (i.e. subcutaneous injections) into the loose skin over the neck and shoulder area. Three (3) mice in each group were tested (n=3). Serum was collected on days 8, […], 22, 29, and day 36 (for Groups 1 and 5-11 only). Mice were fasted for four hours prior to each collection. ANGPTL3 protein levels in serum were measured by ELISA assay (R&D Systems), according to the manufacturer's recommendations. Triglycerides, high-density lipoprotein (HDL), and total cholesterol in serum were measured on a Cobas® Integra 400 (Roche Diagnostics), according to the manufacturer's recommendations.
as §3

ANGPTL3 gene [3] = assay: Example 8: serum total cholesterol in cynomolgus monkeys; assay type: in vivo, cynomolgus macaque (Macaca fascicularis); settings: 3.0 mg/kg single SC injection day 1, cynos, n=2
Experimental: (§5) Additional ANGPTL3 RNAi agents were evaluated in cynomolgus monkeys. On day 1, cynomolgus macaque (Macaca fascicularis) primates (also referred to herein as “cynos”) were administered a single subcutaneous injection of 0.3 mL/kg (approximately 1-2 mL volume, depending on animal mass) containing 3.0 mg/kg of one of ANGPTL3 RNAi agent AD05577, AD05307, AD05488, AD05654, or AD05659, each formulated in saline.
(§6) Two (2) cynos in each group were tested (n=2). Blood samples were drawn and serum samples were analyzed on days −8 (pre-dose), 1 (pre-dose), 8, 15, 22, 29, and 36. Cynos were fasted overnight prior to each collection. ANGPTL3 protein levels in serum were measured by ELISA assay (R&D Systems), according to the manufacturer's recommendations. Triglycerides, total cholesterol, high-density lipoprotein (HDL), and low-density lipoprotein (LDL) in serum were measured on a Cobas® Integra 400 (Roche Diagnostics), according to the manufacturer's recommendations.
(§7) The ANGPTL3 protein levels, triglyceride levels, total cholesterol levels, HDL levels, and LDL levels for each animal were normalized. For normalization, the level of ANGPTL3 protein, triglyceride, HDL, and total cholesterol, respectively, for each animal at a time point, was divided by the average pre-treatment level of expression in that animal (in this case at days −8, and 1 (pre-dose)) to determine the ratio of expression “normalized to pre-treatment.”

ANGPTL3 gene [4] = assay: Example 8: serum triglycerides in cynomolgus monkeys; assay type: in vivo, cynomolgus macaque (Macaca fascicularis); settings: 3.0 mg/kg single SC injection day 1, cynos, n=2
Experimental: as §5, §6, §7

ANGPTL3 gene [5] = assay: Example 8: serum HDL in cynomolgus monkeys; assay type: in vivo, cynomolgus macaque (Macaca fascicularis); settings: 3.0 mg/kg single SC injection day 1, cynos, n=2
Experimental: as §5, §6, §7

ANGPTL3 gene [6] = assay: Example 3: serum HDL in mice; assay type: in vivo
Experimental: as §1, §2, §3

ANGPTL3 gene [7] = assay: Example 2: serum total cholesterol in mice; assay type: in vivo
Experimental: as §1, with “target different” for “target”, “positions” for “positions 921 and 922”, “either 3” for “either 1”, “Table 7.” for “Table 12.”
as §4, §3

[8] = Day 8, 1.0 mg/kg single subcutaneous dose on day 1, female C57bl/6 mice
[9] = Day 15, 1.0 mg/kg single subcutaneous dose on day 1, female C57bl/6 mice
[10] = Day 22, 1.0 mg/kg single subcutaneous dose on day 1, female C57bl/6 mice
[11] = Day 29, 1.0 mg/kg single subcutaneous dose on day 1, female C57bl/6 mice
[12] = Day 8, 3.0 mg/kg single subcutaneous dose on day 1, female C57bl/6 mice
[13] = Day 13, 3.0 mg/kg single subcutaneous dose on day 1, female C57bl/6 mice
[14] = Day 22, 3.0 mg/kg single subcutaneous dose on day 1, female C57bl/6 mice
[15] = Day 29, 3.0 mg/kg single subcutaneous dose on day 1, female C57bl/6 mice
[16] = Day 36, 3.0 mg/kg single subcutaneous dose on day 1, female C57bl/6 mice

Question: For “AD05307: RNAi agent duplex: antisense AM07001-AS, sense AM07000-SS (chain 1 mU*fU*mU*fGmAfAmUfUmAfAmUfGmUfCmCfAmUfGmGmG*mC; chain 2 {NAG37}*[invAb]*mGmCmCmCmAmUmGmGfAfCfAmUmUmAmAmUmUmCmAmAmA*[invAb])”, which “Avg Total Chol (Average Total Cholestrol Normalized to Pre-Treatment and Control)” value (ANGPTL3 gene [1]; [8]) is on record?
Answer: 0.940

Question: What about the “Avg Total Chol (Average Total Cholestrol Normalized to Pre-Treatment and Control)” value (ANGPTL3 gene [1]; [9]) of the same substance?
Answer: 0.840

Question: What about the “Avg Total Chol (Average Total Cholestrol Normalized to Pre-Treatment and Control)” value (ANGPTL3 gene [1]; [10]) of the same substance?
Answer: 0.948

Question: What about the “Avg Total Chol (Average Total Cholestrol Normalized to Pre-Treatment and Control)” value (ANGPTL3 gene [1]; [11]) of the same substance?
Answer: 1.088

Question: And the “Avg ANGPTL3 (Average ANGPTL3 Protein Normalized to Pre-Treatment and Control)” value (ANGPTL3 protein; Day 8)?
Answer: 0.323

Question: And the “Avg ANGPTL3 (Average ANGPTL3 Protein Normalized to Pre-Treatment and Control)” value (ANGPTL3 protein; Day 15)?
Answer: 0.311

Question: And the “Avg ANGPTL3 (Average ANGPTL3 Protein Normalized to Pre-Treatment and Control)” value (ANGPTL3 protein; Day 22)?
Answer: 0.346

Question: And the “Avg ANGPTL3 (Average ANGPTL3 Protein Normalized to Pre-Treatment and Control)” value (ANGPTL3 protein; Day 29)?
Answer: 0.486

Question: What about the “Avg HDL (Average HDL Normalized to Pre-Treatment and Control)” value (ANGPTL3 gene [2]; [12]) of the same substance?
Answer: 0.633

Question: And the “Avg HDL (Average HDL Normalized to Pre-Treatment and Control)” value (ANGPTL3 gene [2]; [13])?
Answer: 0.524

Question: And the “Avg HDL (Average HDL Normalized to Pre-Treatment and Control)” value (ANGPTL3 gene [2]; [14])?
Answer: 0.588

Question: And the “Avg HDL (Average HDL Normalized to Pre-Treatment and Control)” value (ANGPTL3 gene [2]; [15])?
Answer: 0.724

Question: And the “Avg HDL (Average HDL Normalized to Pre-Treatment and Control)” value (ANGPTL3 gene [2]; [16])?
Answer: 0.702

Question: What about the “Avg Total Chol normalized to pre-treatment” value (from here on “Avg Total Chol normalized”) (ANGPTL3 gene [3]; Day 8) of the same substance?
Answer: 0.994

Question: What about the “Avg Total Chol normalized” value (ANGPTL3 gene [3]; Day 15) of the same substance?
Answer: 1.006

Question: What about the “Avg Total Chol normalized” value (ANGPTL3 gene [3]; Day 22) of the same substance?
Answer: 0.905

Question: What about the “Avg Total Chol normalized” value (ANGPTL3 gene [3]; Day 29) of the same substance?
Answer: 0.954

Question: What about the “Avg Total Chol normalized” value (ANGPTL3 gene [3]; Day 36) of the same substance?
Answer: 0.909

Question: What about the “Avg TG normalized to pre-treatment” value (ANGPTL3 gene [4]; Day 8) of the same substance?
Answer: 1.157

Question: And the “Avg TG normalized to pre-treatment” value (ANGPTL3 gene [4]; Day 15)?
Answer: 1.058

Question: And the “Avg TG normalized to pre-treatment” value (ANGPTL3 gene [4]; Day 22)?
Answer: 0.895

Question: What about the “Avg TG normalized to pre-treatment” value (ANGPTL3 gene [4]; Day 29) of the same substance?
Answer: 0.969

Question: And the “Avg TG normalized to pre-treatment” value (ANGPTL3 gene [4]; Day 36)?
Answer: 0.806

Question: What about the “Average HDL Normalized to Pre-Treatment” value (ANGPTL3 gene [5]; Day 8) of the same substance?
Answer: 1.007

Question: And the “Average HDL Normalized to Pre-Treatment” value (ANGPTL3 gene [5]; Day 15)?
Answer: 0.946

Question: And the “Average HDL Normalized to Pre-Treatment” value (ANGPTL3 gene [5]; Day 22)?
Answer: 0.879

Question: What about the “Average HDL Normalized to Pre-Treatment” value (ANGPTL3 gene [5]; Day 29) of the same substance?
Answer: 0.998

Question: And the “Average HDL Normalized to Pre-Treatment” value (ANGPTL3 gene [5]; Day 36)?
Answer: 0.863

Question: And the “Avg HDL (Average HDL Normalized to Pre-Treatment and Control)” value (ANGPTL3 gene [6]; [8])?
Answer: 0.916

Question: What about the “Avg HDL (Average HDL Normalized to Pre-Treatment and Control)” value (ANGPTL3 gene [6]; [9]) of the same substance?
Answer: 0.856

Question: And the “Avg HDL (Average HDL Normalized to Pre-Treatment and Control)” value (ANGPTL3 gene [6]; [10])?
Answer: 0.913

Question: And the “Avg HDL (Average HDL Normalized to Pre-Treatment and Control)” value (ANGPTL3 gene [6]; [11])?
Answer: 1.053

Question: What about the “Avg Total Chol (Average Total Cholestrol Normalized to Pre-Treatment and Control)” value (ANGPTL3 gene [7]; [12]) of the same substance?
Answer: 0.649

Question: And the “Avg Total Chol (Average Total Cholestrol Normalized to Pre-Treatment and Control)” value (ANGPTL3 gene [7]; [13])?
Answer: 0.570

Question: What about the “Avg Total Chol (Average Total Cholestrol Normalized to Pre-Treatment and Control)” value (ANGPTL3 gene [7]; [14]) of the same substance?
Answer: 0.628

Question: What about the “Avg Total Chol (Average Total Cholestrol Normalized to Pre-Treatment and Control)” value (ANGPTL3 gene [7]; [15]) of the same substance?
Answer: 0.753

Question: And the “Avg Total Chol (Average Total Cholestrol Normalized to Pre-Treatment and Control)” value (ANGPTL3 gene [7]; [16])?
Answer: 0.755
